According to patent publication US12534699B2, “Method for promoting growth of bacteria of genus Bifidobacterium” (KABUSHIKI KAISHA YAKULT HONSHA, priority 2019, dated 2026):

Key:
Assay type in all cases: cell-based
[1] = test system: Bifidobacterium breve YIT 12272 (BbY); assay: Culture of BbY in skimmed milk culture medium with L-cystine or L-cysteine (simultaneous / individual heating); settings: for growth rate of the viable cell count, simultaneous versus individual heating (growth curve): final concentration 0.03% (w/v), FIG. 2; for viable cell count and acidity versus culture medium not containing L-cystine and L-cysteine: simultaneous heating culture medium (skimmed milk or whey), 0.001 to 0.1% (w/v), FIGS. 3 and 4; for concentration at which the viable cell count was maximum: skimmed milk simultaneous heating culture medium, culture time 9 hours
Procedure: (§1) Bifidobacterium breve YIT 12272 (hereinafter, referred to as BbY), Bifidobacterium bifidum YIT 10347 (hereinafter, referred to as BF-1), Lactobacillus casei YIT 9029 (hereinafter, referred to as YIT 9029), and Lactobacillus acidophilus YIT 0198 (hereinafter, referred to as YIT 0198) were used.
A skimmed milk powder (ABC, manufactured by MEGMILK SNOW BRAND Co., Ltd.) was dissolved in RO water at 12% (w/v), the solution was dispensed in 10 mL aliquots in a rimmed medium-sized test tube while replacing the headspace with nitrogen gas and sealed with a butyl rubber stopper. […] In addition, a skimmed milk culture medium (simultaneous heating culture medium) was prepared in anaerobic conditions by adding an L-cystine (manufactured by Kyowa Hakko Bio Co., Ltd.) aqueous suspension or an L-cysteine hydrochloride (manufactured by Nichiri Kagaku Co., Ltd.) aqueous solution to a skimmed milk culture medium at a final concentration of 0.05 (w/v) % and performing heat sterilization after the addition of the suspension or the solution, and a skimmed milk culture medium (individual heating culture medium) was prepared in anaerobic conditions by adding the suspension or the solution to a skimmed milk culture medium at a final concentration of 0.05 (w/v) % after heat sterilization and immediately before inoculation. Here, the L-cystine aqueous suspension and the L-cysteine hydrochloride aqueous solution were prepared as a 5% (w/v) aqueous suspension and a 5% (w/v) aqueous solution, respectively, and were added to each culture medium at an amount of 1% (v/v). In order to unify the changes in the concentration and the changes in the redox potential of samples due to the addition of the solution, 1% (v/v) of sterilized water was added to the simultaneous heating culture medium immediately before inoculation, to the individual heating culture medium before heating, and to the additive-free culture medium before heating and immediately before inoculation, i.e., twice.
(§2) When bacteria were inoculated, inoculation was performed while replacing the headspace of the container with nitrogen gas, and the nitrogen gas was sealed with a butyl rubber stopper, followed by culture. The culture was performed in a thermostat water bath set to 37° C. for 12 hours.
(§3) The pH of a culture medium or a bacterial solution was measured using a desk-top pH meter (F52, manufactured by HORIBA, Ltd.).
(§4) The amount of a 0.1 N sodium hydroxide aqueous solution for 9.0 g of a bacterial solution required to reach a pH of 8.5 was defined as acidity. The measurement was performed using an automatic titrator (manufactured by HIRANUMA Co., Ltd.).
(§5) Regardless of the bacterial strain, a bacterial solution was appropriately diluted with a 0.85% (w/v) sodium chloride aqueous solution (physiological saline solution). The diluted bacterial solution was inoculated with a spiral plater EDDY JET (manufactured by IUL Instruments GmbH) on a plate culture medium of TOS propionate agar medium (manufactured by Yakult Pharmaceutical Industry Co., Ltd.) in the case of bacteria of the genus Bifidobacterium and a plate culture medium of BCP Added Plate Count medium (manufactured by EIKEN CHEMICAL CO., LTD.) in the case of bacteria of the genus Lactobacillus, followed by culture at 37° C. for 48 to 72 hours. The grown colonies were counted as the viable cell count. The bacteria of the genus Lactobacillus were cultured in aerobic conditions, and the bacteria of the genus Bifidobacterium were cultured in anaerobic conditions (Anaero Pack, manufactured by MITSUBISHI GAS CHEMICAL COMPANY, INC.). Colonies were counted using a colony counter ProtoCOL (manufactured by Synoptics Ltd.).
As in Example 1, each simultaneous heating culture medium of milk and L-cystine or L-cysteine was prepared. The addition concentration of L-cystine or L-cysteine was adjusted to 0.001, 0.003, 0.005, 0.01, 0.03, 0.05, or 0.1% (w/v) as the final concentration. […]

[2] = test system: Bifidobacterium bifidum YIT 10347 (BF-1); assay: Culture of BF-1 in skimmed milk culture medium with L-cystine or L-cysteine; settings: for viable cell count and acidity versus culture medium not containing L-cystine and L-cysteine: BF-1, simultaneous heating culture medium (skimmed milk or whey), 0.001 to 0.1% (w/v), FIGS. 5 and 6; for concentration at which the viable cell count was maximum: BF-1, skimmed milk simultaneous heating culture medium, 12 hours
Procedure: as §1
A skimmed milk powder (ABC, manufactured by MEGMILK SNOW BRAND Co., Ltd.) was dissolved in RO water at 12% (w/v), the solution was dispensed in 10 mL aliquots in a rimmed medium-sized test tube while replacing the headspace with nitrogen gas and sealed with a butyl rubber stopper. Subsequently, the solution was sterilized by heat in an autoclave (SX-500, manufactured by Tomy Seiko Co., Ltd.) at 115° C. for 30 minutes to provide a skimmed milk culture medium (additive-free culture medium). In addition, a skimmed milk culture medium (simultaneous heating culture medium) was prepared in anaerobic conditions by adding an L-cystine (manufactured by Kyowa Hakko Bio Co., Ltd.) aqueous suspension or an L-cysteine hydrochloride (manufactured by Nichiri Kagaku Co., Ltd.) aqueous solution to a skimmed milk culture medium at a final concentration of 0.05 (w/v) % and performing heat sterilization after the addition of the suspension or the solution, and a skimmed milk culture medium (individual heating culture medium) was prepared in anaerobic conditions by adding the suspension or the solution to a skimmed milk culture medium at a final concentration of 0.05 (w/v) % after heat sterilization and immediately before inoculation. Here, the L-cystine aqueous suspension and the L-cysteine hydrochloride aqueous solution were prepared as a 5% (w/v) aqueous suspension and a 5% (w/v) aqueous solution, respectively, and were added to each culture medium at an amount of 1% (v/v). In order to unify the changes in the concentration and the changes in the redox potential of samples due to the addition of the solution, 1% (v/v) of sterilized water was added to the simultaneous heating culture medium immediately before inoculation, to the individual heating culture medium before heating, and to the additive-free culture medium before heating and immediately before inoculation, i.e., twice.
as §2, §3, §4, §5
As in Example 1, each simultaneous heating culture medium of milk and L-cystine or L-cysteine was prepared. […]

[3] = test system: Lactobacillus casei YIT 9029; assay: Culture of YIT 9029 in skimmed milk culture medium with L-cystine or L-cysteine; settings: YIT 9029, skimmed milk culture medium, 0.05 (w/v) %, 37° C., 12 hours, FIG. 1
Procedure: as §1
A skimmed milk powder (ABC, manufactured by MEGMILK SNOW BRAND Co., Ltd.) was dissolved in RO water at 12% (w/v), the solution was dispensed in 10 mL aliquots in a rimmed medium-sized test tube while replacing the headspace with nitrogen gas and sealed with a butyl rubber stopper. Subsequently, the solution was sterilized by heat in an autoclave (SX-500, manufactured by Tomy Seiko Co., Ltd.) at 115° C. for 30 minutes to provide a skimmed milk culture medium (additive-free culture medium). […]
The pH of a culture medium or a bacterial solution was measured using a desk-top pH meter (F52, manufactured by HORIBA, Ltd.). […]
Regardless of the bacterial strain, a bacterial solution was appropriately diluted with a 0.85% (w/v) sodium chloride aqueous solution (physiological saline solution). […] The grown colonies were counted as the viable cell count. […] Colonies were counted using a colony counter ProtoCOL (manufactured by Synoptics Ltd.).

[4] = BbY, skimmed milk, 0.05 (w/v) %, cultured 12 hours
[5] = BbY, skimmed milk, L-cystine 0.03% (w/v), 115° C. for 30 min, after heat sterilization (individual heating), 12 hours
[6] = BbY, skimmed milk, L-cystine 0.03% (w/v), 115° C. for 30 min, before heat sterilization (simultaneous heating), 12 hours
[7] = BbY, skimmed milk, L-cystine 0.03% (w/v), 121° C. for 30 min, after heat sterilization (individual heating), 12 hours
[8] = BbY, skimmed milk, L-cystine 0.03% (w/v), 121° C. for 30 min, before heat sterilization (simultaneous heating), 12 hours
[9] = BF-1, skimmed milk, 0.05 (w/v) %, cultured 12 hours
[10] = BbY, milk, L-cysteine 0.03% (w/v), filter sterilization (0.22 μm, no heating), culture time 9 h
[11] = BbY, milk, L-cysteine 0.03% (w/v), filter sterilization (0.22 μm, no heating), culture time 12 h
[12] = BbY, milk, L-cysteine 0.03% (w/v), individual heating, culture time 9 h
[13] = BbY, milk, L-cysteine 0.03% (w/v), individual heating, culture time 12 h
[14] = BbY, milk, L-cysteine, simultaneous heating, culture time 9 h
[15] = BbY, milk, L-cysteine, simultaneous heating, culture time 12 h

N[C@@H](CSSC[C@H](N)C(=O)O)C(=O)O [L-cystine]
growth rate of the viable cell count, simultaneous versus individual heating (growth curve) ([1]; BbY): higher in the case of the simultaneous heating | viable cell count and acidity versus culture medium not containing L-cystine and L-cysteine ([1]; BbY): increased | concentration at which the viable cell count was maximum ([1]; BbY): 0.01 % (w/v) | acidity higher with simultaneous heating than individual heating [1, 4]: 1.3 mL/9 g | viable cell count increase compared to absence of L-cystine [1, 4]: 5.6 times | viable cell count, simultaneous heating versus individual heating [1, 4]: the same | Acidity [1, 5]: 3.82 mL/9 g | Viable cell count [1, 5]: 1.29 × 10^9 CFU/mL | pH [1, 5]: 5.34 | Acidity [1, 6]: 5.40 mL/9 g | Viable cell count [1, 6]: 1.89 × 10^9 CFU/mL | pH [1, 6]: 5.00 | Acidity [1, 7]: 4.00 mL/9 g | Viable cell count [1, 7]: 1.12 × 10^9 CFU/mL | pH [1, 7]: 5.26 | Acidity [1, 8]: 5.42 mL/9 g | Viable cell count [1, 8]: 1.86 × 10^9 CFU/mL | pH [1, 8]: 4.96 | viable cell count and acidity versus culture medium not containing L-cystine and L-cysteine [2]: increased | concentration at which the viable cell count was maximum [2]: 0.1 % (w/v) | acidity higher with simultaneous heating than individual heating [2, 9]: 1.3 times | viable cell count higher with simultaneous heating than individual heating [2, 9]: 4.5 times | growth promotion by addition [3]: not observed

Cl.N[C@@H](CS)C(=O)O [L-cysteine, L-cysteine hydrochloride]
growth rate of the viable cell count, simultaneous versus individual heating (growth curve) ([1]; BbY): higher in the case of the simultaneous heating | Acidity [1, 10]: 3.62 ml/9 g | Viable cell count [1, 10]: 8.92 × 10^8 CFU/ml | pH [1, 10]: 5.40 | Acidity [1, 11]: 5.12 ml/9 g | Viable cell count [1, 11]: 1.64 × 10^9 CFU/ml | pH [1, 11]: 4.94 | Acidity [1, 12]: 3.59 ml/9 g | Viable cell count [1, 12]: 7.77 × 10^8 CFU/ml | pH [1, 12]: 5.42 | Acidity [1, 13]: 5.04 ml/9 g | Viable cell count [1, 13]: 1.78 × 10^9 CFU/ml | pH [1, 13]: 5.02 | Acidity [1, 14]: 4.47 ml/9 g | Viable cell count [1, 14]: 1.34 × 10^9 CFU/ml | pH [1, 14]: 5.17 | Acidity [1, 15]: 8.05 ml/9 g | Viable cell count [1, 15]: 3.46 × 10^9 CFU/ml | pH [1, 15]: 4.64 | viable cell count and acidity versus culture medium not containing L-cystine and L-cysteine ([1]; BbY): increased | concentration at which the viable cell count was maximum ([1]; BbY): 0.03 % (w/v) | promotion of growth by simultaneous heating with milk ([1]; FIGS. 1 and 2): promotion of growth was observed | difference in the culture state of BbY, individual heating versus filter sterilization ([1]; L-cysteine added to milk at 0.03% (w/v)): no difference | viable cell count and acidity versus culture medium not containing L-cystine and L-cysteine [2]: increased | concentration at which the viable cell count was maximum [2]: 0.05 % (w/v) | growth promotion by addition [3]: not observed
